From DBAASP
Converted amounts (≈) assume the structure as drawn. “And” between values parts separate entries of the source, which are not always exact repeats. Equal values may be shown once.

How the values were obtained:
Assay in all cases: ≥ marks a high value that may be exact or a test limit, other limits are often not marked, values filed in µg/mL are converted to µM
[1] = test system: Escherichia coli K12 MG1655
[2] = test system: Proteus vulgaris MTCC 1771
[3] = test system: Haemophilus influenzae MTCC 621
[4] = test system: Salmonella enterica subsp. enterica serovar Typhimurium ATCC 14028
[5] = test system: Alcaligenes faecalis MTCC 1937
[6] = test system: Pseudomonas aeruginosa MTCC 3542
[7] = test system: Citrobacter freundii MTCC 1658
[8] = test system: Klebsiella oxytoca MTCC 2275
[9] = test system: Bordetella bronchiseptica MTCC 6837
[10] = test system: Pluralibacter gergoviae MTCC 3826
[11] = test system: Shigella boydii MTCC 11947
[12] = test system: Citrobacter koseri MTCC 1657
[13] = test system: Salmonella enterica MTCC 9844
[14] = test system: Vibrio cholerae MTCC 3904
[15] = test system: Shigella flexneri MTCC 1457
[16] = test system: Corynebacterium glutamicum MTCC 2679
[17] = test system: Stenotrophomonas maltophilia MTCC 1890
[18] = test system: Staphylococcus aureus MTCC 3160
[19] = test system: Klebsiella pneumoniae MTCC 7407
[20] = test system: Staphylococcus haemolyticus MTCC 3383
[21] = test system: Alkalihalobacillus alcalophilus MTCC 860
[22] = test system: Acinetobacter baumannii MTCC 9829
[23] = test system: Klebsiella aerogenes MTCC 111
[24] = test system: Enterococcus faecalis MTCC 439
[25] = test system: Proteus mirabilis MTCC 3158
[26] = test system: Escherichia coli MG1655
[27] = test system: Bacillus subtilis 168 HT
[28] = test system: Staphylococcus epidermidis ATCC 12228
[29] = test system: Escherichia coli ER2566
[30] = test system: Escherichia coli K88
[31] = test system: Escherichia coli 078
[32] = test system: Pseudomonas aeruginosa ATCC 27853
[33] = test system: Enterococcus faecalis ATCC 29212
[34] = test system: Bacillus subtilis ATCC 11060
[35] = test system: Escherichia coli CVCC 1515
[36] = test system: Staphylococcus aureus ATCC 29213
[37] = test system: Pseudomonas aeruginosa ATCC 21625
[38] = test system: Escherichia coli CMCC 44102
[39] = test system: Escherichia coli UB1005
[40] = test system: Staphylococcus aureus ATCC 25923
[41] = test system: Pseudomonas aeruginosa ATCC 10419
[42] = test system: Salmonella enterica subsp. enterica serovar Pullorum C79-13
[43] = test system: Pseudomonas aeruginosa ATCC 21630
[44] = test system: Salmonella enterica subsp. enterica serovar Typhimurium C77-31
[45] = test system: Escherichia coli JW0013
[46] = test system: Salmonella enterica subsp. enterica serovar Enteritidis MH91989
[47] = test system: Escherichia coli
[48] = test system: Salmonella enterica serovar Tennessee
[49] = test system: Salmonella enterica subsp. enterica serovar Newport
[50] = test system: Escherichia coli JW0368 ΔsbmA
[51] = test system: Escherichia coli MC1041
[52] = test system: Salmonella enterica subsp. enterica serovar Infantis
[53] = test system: Escherichia coli JJ2489
[54] = test system: Escherichia coli JW2778 ΔygdD
[55] = test system: Escherichia coli J2210
[56] = test system: Salmonella typhimurium SL1344

**Q.** Which MIC [1] does the source give for CC[C@H](C)[C@H](NC(=O)[C@H](C)NC(=O)[C@H](CCCCN)NC(=O)[C@@H](N)CCC(=O)O)C(=O)N[C@@H](CC(C)C)C(=O)N[C@@H](CO)C(=O)N[C@@H](C)C(=O)N[C@@H](CC(C)C)C(=O)N[C@@H](CCCCN)C(=O)N[C@@H](CC(C)C)C(=O)N[C@@H](CC(C)C)C(=O)N[C@@H](CCCN=C(N)N)C(=O)N[C@@H](CC(C)C)C(=O)N[C@@H](C)C(=O)N[C@@H](CC(C)C)C(=O)O [EKAILSALKLLRLAL] here?
**A.** ≥ 77.5 µM

**Q.** And the MIC [2]?
**A.** ≥ 77.5 µM

**Q.** And the MIC [3]?
**A.** 9.68 µM (≈ 16 µg/mL)

**Q.** And the MIC [4]?
**A.** > 77.5 µM

**Q.** What about the MIC [5] of the same compound?
**A.** ≥ 77.5 µM

**Q.** What about the MIC [6] of the same compound?
**A.** ≥ 77.5 µM

**Q.** What about the MIC [7] of the same compound?
**A.** ≥ 77.5 µM

**Q.** What about the MIC [8] of the same compound?
**A.** ≥ 77.5 µM

**Q.** What about the MIC [9] of the same compound?
**A.** ≥ 38.7 µM

**Q.** What about the MIC [10] of the same compound?
**A.** ≥ 77.5 µM

**Q.** And the MIC [11]?
**A.** ≥ 77.5 µM

**Q.** What about the MIC [12] of the same compound?
**A.** ≥ 77.5 µM

**Q.** What about the MIC [13] of the same compound?
**A.** ≥ 77.5 µM

**Q.** And the MIC [14]?
**A.** ≥ 77.5 µM

**Q.** What about the MIC [15] of the same compound?
**A.** ≥ 77.5 µM

**Q.** What about the MIC [16] of the same compound?
**A.** 19.4 µM (≈ 32 µg/mL)

**Q.** What about the MIC [17] of the same compound?
**A.** ≥ 77.5 µM

**Q.** And the MIC [18]?
**A.** ≥ 77.5 µM

**Q.** And the MIC [19]?
**A.** ≥ 77.5 µM

**Q.** And the MIC [20]?
**A.** ≥ 77.5 µM

**Q.** And the MIC [21]?
**A.** ≥ 38.7 µM

**Q.** And the MIC [22]?
**A.** ≥ 77.5 µM

**Q.** What about the MIC [23] of the same compound?
**A.** ≥ 77.5 µM

**Q.** And the MIC [24]?
**A.** ≥ 77.5 µM

**Q.** What about the MIC [25] of the same compound?
**A.** ≥ 77.5 µM

**Q.** How did the MIC [26] turn out when CC[C@H](C)[C@H](NC(=O)[C@H](CCCCN)NC(=O)[C@H](Cc1ccccc1)NC(=O)[C@H](CCCN=C(N)N)NC(=O)[C@H](CCCCN)NC(=O)[C@@H](NC(=O)[C@@H](NC(=O)[C@H](Cc1ccccc1)NC(=O)CN)[C@@H](C)CC)C(C)C)C(=O)N[C@@H](CC(C)C)C(=O)N[C@H](C(=O)O)C(C)C [GFIVKRFKILV] was run?
**A.** ≥ 97 µM

**Q.** And the MIC [27]?
**A.** ≥ 97 µM

**Q.** How did the MIC [28] turn out when CC[C@H](C)[C@H](NC(=O)[C@H](CCCCN)NC(=O)[C@H](CCCCN)NC(=O)[C@H](CC(C)C)NC(=O)[C@H](CCCN=C(N)N)NC(=O)[C@H](Cc1c[nH]c2ccccc12)NC(=O)[C@H](CCCN=C(N)N)NC(=O)[C@@H](NC(=O)[C@H](CCCCN)NC(=O)[C@H](Cc1c[nH]c2ccccc12)NC(=O)[C@H](CCCN=C(N)N)NC(=O)[C@H](CC(C)C)NC(=O)[C@H](CCCN=C(N)N)NC(=O)[C@H](CCCN=C(N)N)NC(=O)[C@H](Cc1ccccc1)NC(=O)[C@@H](N)CCCN=C(N)N)[C@@H](C)O)C(=O)N[C@@H](Cc1c[nH]c2ccccc12)C(=O)N[C@@H](Cc1c[nH]c2ccccc12)C(=O)N1CCC[C@H]1C(=O)N[C@@H](Cc1ccccc1)C(=O)N[C@@H](CC(C)C)C(=O)N[C@@H](CCCN=C(N)N)C(=O)N[C@@H](CCCN=C(N)N)C(N)=O [RFRRLRWKTRWRLKKIWWPFLRR] was run?
**A.** 4.01 µM (≈ 13.4 µg/mL)

**Q.** What about the MIC [4] of the same compound?
**A.** 4.01 µM (≈ 13.4 µg/mL)

**Q.** And the MIC [29]?
**A.** 0.987 µM (≈ 3.3 µg/mL)

**Q.** And the MIC [30]?
**A.** 0.509 µM (≈ 1.7 µg/mL)

**Q.** What about the MIC [31] of the same compound?
**A.** 4.01 µM (≈ 13.4 µg/mL)

**Q.** And the MIC [32]?
**A.** 4.01 µM (≈ 13.4 µg/mL)

**Q.** What about the MIC [33] of the same compound?
**A.** 0.987 µM (≈ 3.3 µg/mL)

**Q.** What about the MIC [34] of the same compound?
**A.** 0.987 µM (≈ 3.3 µg/mL)

**Q.** What about the MIC [35] of the same compound?
**A.** 0.509 µM (≈ 1.7 µg/mL)

**Q.** What about the MIC [36] of the same compound?
**A.** 2 µM (≈ 6.7 µg/mL)

**Q.** And the MIC [37]?
**A.** 2 µM (≈ 6.7 µg/mL)

**Q.** What about the MIC [38] of the same compound?
**A.** 2 µM (≈ 6.7 µg/mL)

**Q.** What about the MIC [39] of the same compound?
**A.** 0.987 µM (≈ 3.3 µg/mL)

**Q.** What about the MIC [40] of the same compound?
**A.** 7.99 µM (≈ 26.7 µg/mL)

**Q.** And the MIC [41]?
**A.** 2 µM (≈ 6.7 µg/mL)

**Q.** What about the MIC [42] of the same compound?
**A.** 4.01 µM (≈ 13.4 µg/mL)

**Q.** What about the MIC [43] of the same compound?
**A.** 4.01 µM (≈ 13.4 µg/mL)

**Q.** What about the MIC [44] of the same compound?
**A.** 2 µM (≈ 6.7 µg/mL)

**Q.** For CC[C@H](C)[C@H](NC(=O)[C@@H]1CCCN1C(=O)[C@H](CCCCN)NC(=O)[C@@H]1CCCN1C(=O)[C@@H]1CCCN1C(=O)[C@@H](NC(=O)[C@@H]1CCCN1C(=O)[C@H](CCCN=C(N)N)NC(=O)[C@@H]1CCCN1C(=O)[C@H](CCCN=C(N)N)NC(=O)[C@H](Cc1ccc(O)cc1)NC(=O)[C@H](CO)NC(=O)CNC(=O)[C@H](CCCCN)NC(=O)[C@H](CC(=O)O)NC(=O)[C@@H](N)C(C)C)[C@@H](C)O)C(=O)N[C@@H](Cc1ccc(O)cc1)C(=O)N[C@@H](CC(N)=O)C(=O)N[C@@H](CCCN=C(N)N)C(=O)N[C@@H](CC(N)=O)C(=O)O [VDKGSYRPRPTPPKPIYNRN], which MIC [45] is on record?
**A.** 0.037 µM (≈ 0.0872 µg/mL)

**Q.** What about the MIC [46] of the same compound?
**A.** 0.15 µM (≈ 0.353 µg/mL)

**Q.** What about the MIC [47] of the same compound?
**A.** 0.15 µM and 0.208 µM

**Q.** And the MIC [48]?
**A.** 0.075 µM (≈ 0.177 µg/mL)

**Q.** And the MIC [49]?
**A.** 0.037 µM (≈ 0.0872 µg/mL)

**Q.** And the MIC [50]?
**A.** 0.3 µM (≈ 0.707 µg/mL)

**Q.** What about the MIC [51] of the same compound?
**A.** 0.075 µM (≈ 0.177 µg/mL)

**Q.** What about the MIC [52] of the same compound?
**A.** 0.098 µM (≈ 0.231 µg/mL)

**Q.** And the MIC [53]?
**A.** 0.078 µM (≈ 0.184 µg/mL)

**Q.** What about the MIC [54] of the same compound?
**A.** 0.104 µM (≈ 0.245 µg/mL)

**Q.** And the MIC [55]?
**A.** 0.075 µM (≈ 0.177 µg/mL)

**Q.** And the MIC [56]?
**A.** 0.075 µM (≈ 0.177 µg/mL)
